Reference: patent publication EP4426265B1, “OPHTHALMIC COMPOSITION COMPRISING A LUBRICANT AGENT AND VERBASCOSIDE, AND SAID COMPOSITION FOR USE IN THE PREVENTIVE OR CURATIVE TREATMENT OF A CORNEAL EPITHELIAL DEFECT AND/OR A CONJUNCTIVAL DEFECT IN A SUBJECT” (NOVAX PHARMA S.A.M., priority 2021, dated 2023)

Details: not told

OB(O)O [Boric acid]
percentage average value (%av) of permeability: 0.9%

C[C@@H]1O[C@@H](O[C@@H]2[C@@H](O)[C@H](OCCc3ccc(O)c(O)c3)O[C@H](CO)[C@H]2OC(=O)/C=C/c2ccc(O)c(O)c2)[C@H](O)[C@H](O)[C@H]1O [VERBASCOSIDE, Verbascoside]
percentage average value (%av) of permeability: not measurable
